Counter-ions that a name gives are not always drawn. Like-named read-outs stand apart in the source and are kept apart here.
Assays:
[1] = tested on: Phosphorylated Ribosomal Protein S6 (RPS6); assay: THP-1 RPS6 ELISA Assay; assay type: cell-based, Human; conditions: THP-1 cells, read-out: PI3Kγ_THP1_RPS6_ELISA IC50
Description: To measure the Phosphorylated Ribosomal Protein S6 (RPS6) in cell lysates, THP-1 cells (Human Acute Monocytic Leukemia) are purchased from ATCC (Manassas, Va.) and maintained in RPMI with 10% FBS (Gibco/Life Technologies, Carlsbad, Calif.). For the assay, THP-1 cells are serum starved overnight in RPMI, then plated in RPMI (2×10^5 cells/well in 90 μL) into 96-well flat-bottom tissue culture treated plates (Corning, Corning, N.Y.), in the presence or absence of a concentration range of test compounds. Covered plates are incubated for 2 hours at 37° C., 5% CO2 then treated with or without 10 nM MCP-1 (MYBioSource, San Diego, Calif.) for 15 minutes at 37° C., 5% CO2. Plates are centrifuged at 1600 RPM and supernatants are removed. Cells are lysed in Lysis Buffer (Cell Signaling, Danvers, Mass.) with Protease Inhibitor (Calbiochem/EMD, Germany), PMSF (Sigma, St Louis Mo.), HALTS (Thermo Fisher, Rockford, Ill.) for 30 min on wet ice. Cell lysates are frozen at −80° C. before testing. The lysates are tested in the Human/Mouse/Rat Phospho-RPS6 ELISA (R&D Systems, Inc. Minn, Minn.). The plate is measured using a microplate reader (SpectraMax M5 —Molecular Devices, LLC Sunnyvale, Calif.) set to 450 nm with a wavelength correction of 540. IC50 determination is performed by fitting the curve of inhibitor percent inhibition versus the log of the inhibitor concentration using the GraphPad Prism 5.0 software.

[2] = target: PI3Kγ (p110γ) Recombinant Human Protein (Homo sapiens (Human), UniProt P48736); assay: PI3K-γ Scintillation Proximity Assay; assay type: biochemical; conditions: read-out: PI3Kγ IC50
Method in brief: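 Recombinant human p110γ assayed at room temperature in 20 mM MOPS pH 6.7, 10 mM MgCl2, 5 mM DTT, 0.03% CHAPS, 2% DMSO, with 20 μM PIP2 and 2 μM ATP plus [γ-33P]ATP. Product captured on WGA SPA beads overnight and counted; IC50 fitted from % of solvent-control activity versus log inhibitor concentration.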

[3] = target: PI3Kδ (p110δ/p85α) Recombinant Human Protein (Homo sapiens (Human), UniProt O00329); assay: PI3Kδ Scintillation Proximity Assay; assay type: biochemical
Method in brief: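 Kinase reaction run at room temperature in 20 mM MOPS pH 6.7, 10 mM MgCl2, 5 mM DTT, 0.03% CHAPS with 20 μM PIP2, 2 μM ATP plus [γ-33P]ATP, 3.4 nM enzyme, 2% DMSO; 120 min. Quenched with WGA SPA beads/EDTA, counted by scintillation; IC50 from % solvent-control activity vs log concentration.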

PI3Kδ (p110δ/p85α) Recombinant Human Protein, sequence (O00329 whole entry): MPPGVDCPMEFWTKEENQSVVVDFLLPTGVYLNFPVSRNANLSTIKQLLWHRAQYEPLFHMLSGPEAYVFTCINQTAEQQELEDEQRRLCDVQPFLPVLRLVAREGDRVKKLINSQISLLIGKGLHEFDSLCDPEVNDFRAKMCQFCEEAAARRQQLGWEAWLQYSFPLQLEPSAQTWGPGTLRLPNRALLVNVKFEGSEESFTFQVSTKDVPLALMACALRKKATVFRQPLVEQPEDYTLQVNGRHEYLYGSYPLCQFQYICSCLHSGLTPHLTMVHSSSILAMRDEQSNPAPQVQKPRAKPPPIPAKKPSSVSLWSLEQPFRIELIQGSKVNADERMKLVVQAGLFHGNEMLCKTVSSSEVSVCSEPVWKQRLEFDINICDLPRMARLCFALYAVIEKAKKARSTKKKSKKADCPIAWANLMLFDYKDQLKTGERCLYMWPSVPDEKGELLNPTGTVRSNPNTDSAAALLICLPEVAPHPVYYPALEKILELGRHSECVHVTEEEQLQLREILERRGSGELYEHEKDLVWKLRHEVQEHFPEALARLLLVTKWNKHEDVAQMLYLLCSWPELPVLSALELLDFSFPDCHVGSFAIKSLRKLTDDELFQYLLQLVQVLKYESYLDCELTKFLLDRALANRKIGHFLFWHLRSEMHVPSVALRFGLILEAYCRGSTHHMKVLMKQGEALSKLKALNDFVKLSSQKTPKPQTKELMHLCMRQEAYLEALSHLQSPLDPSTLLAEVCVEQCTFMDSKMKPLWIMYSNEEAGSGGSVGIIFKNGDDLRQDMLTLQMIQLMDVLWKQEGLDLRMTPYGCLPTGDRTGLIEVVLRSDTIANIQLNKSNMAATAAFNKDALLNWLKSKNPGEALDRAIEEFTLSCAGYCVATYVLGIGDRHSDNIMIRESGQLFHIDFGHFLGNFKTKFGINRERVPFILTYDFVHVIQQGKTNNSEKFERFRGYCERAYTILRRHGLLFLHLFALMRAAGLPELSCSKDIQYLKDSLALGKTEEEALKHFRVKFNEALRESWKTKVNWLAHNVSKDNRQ
PI3Kδ (p110δ/p85α) Recombinant Human Protein, sequence (P27986 whole entry partner): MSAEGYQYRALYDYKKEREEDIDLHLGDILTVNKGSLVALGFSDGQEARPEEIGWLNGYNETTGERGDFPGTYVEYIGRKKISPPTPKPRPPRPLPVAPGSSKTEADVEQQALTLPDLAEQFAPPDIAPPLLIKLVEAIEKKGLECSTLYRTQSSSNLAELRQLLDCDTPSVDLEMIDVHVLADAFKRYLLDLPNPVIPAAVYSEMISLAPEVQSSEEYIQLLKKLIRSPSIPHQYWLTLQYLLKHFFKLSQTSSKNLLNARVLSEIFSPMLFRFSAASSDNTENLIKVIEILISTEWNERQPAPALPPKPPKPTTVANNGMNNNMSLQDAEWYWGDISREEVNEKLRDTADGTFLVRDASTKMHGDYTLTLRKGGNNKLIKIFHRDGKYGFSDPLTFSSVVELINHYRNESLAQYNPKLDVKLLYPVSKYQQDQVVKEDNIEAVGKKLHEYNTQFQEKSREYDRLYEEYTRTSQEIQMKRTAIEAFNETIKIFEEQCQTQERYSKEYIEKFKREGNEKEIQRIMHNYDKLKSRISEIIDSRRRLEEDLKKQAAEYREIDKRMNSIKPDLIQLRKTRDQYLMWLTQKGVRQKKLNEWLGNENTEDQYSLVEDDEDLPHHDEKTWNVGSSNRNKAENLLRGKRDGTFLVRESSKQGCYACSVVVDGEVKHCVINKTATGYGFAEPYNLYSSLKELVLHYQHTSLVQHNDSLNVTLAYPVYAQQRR
PI3Kγ (p110γ) Recombinant Human Protein, sequence (P48736 whole entry): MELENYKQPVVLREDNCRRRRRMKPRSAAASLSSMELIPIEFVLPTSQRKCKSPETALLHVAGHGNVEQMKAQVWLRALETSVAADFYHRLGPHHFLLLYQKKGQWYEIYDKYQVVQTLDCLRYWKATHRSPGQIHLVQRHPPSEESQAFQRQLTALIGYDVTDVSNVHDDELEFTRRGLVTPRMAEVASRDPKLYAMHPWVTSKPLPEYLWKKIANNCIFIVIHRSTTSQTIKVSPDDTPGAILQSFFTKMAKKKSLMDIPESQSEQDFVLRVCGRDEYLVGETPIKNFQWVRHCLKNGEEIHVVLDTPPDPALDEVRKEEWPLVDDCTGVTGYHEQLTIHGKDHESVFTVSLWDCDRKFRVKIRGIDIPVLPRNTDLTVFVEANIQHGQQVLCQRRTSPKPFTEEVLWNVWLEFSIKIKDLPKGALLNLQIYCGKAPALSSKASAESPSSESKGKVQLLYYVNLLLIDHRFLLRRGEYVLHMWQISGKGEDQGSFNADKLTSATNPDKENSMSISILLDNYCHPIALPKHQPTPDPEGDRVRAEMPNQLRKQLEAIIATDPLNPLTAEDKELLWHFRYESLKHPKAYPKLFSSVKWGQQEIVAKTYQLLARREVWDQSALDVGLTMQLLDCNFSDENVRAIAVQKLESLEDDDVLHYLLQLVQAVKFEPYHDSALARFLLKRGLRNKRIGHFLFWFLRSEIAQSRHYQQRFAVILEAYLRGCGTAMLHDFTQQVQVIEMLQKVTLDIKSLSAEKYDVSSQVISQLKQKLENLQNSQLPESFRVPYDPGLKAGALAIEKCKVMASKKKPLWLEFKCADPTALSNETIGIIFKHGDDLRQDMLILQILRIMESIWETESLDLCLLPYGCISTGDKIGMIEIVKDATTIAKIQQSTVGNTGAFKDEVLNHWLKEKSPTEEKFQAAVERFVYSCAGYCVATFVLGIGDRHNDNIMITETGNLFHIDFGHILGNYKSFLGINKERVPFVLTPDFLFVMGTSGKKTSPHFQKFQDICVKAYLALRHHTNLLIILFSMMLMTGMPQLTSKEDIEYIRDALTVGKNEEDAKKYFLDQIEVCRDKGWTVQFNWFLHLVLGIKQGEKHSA

Row | Structure (SMILES) | IC50 [1] [nM] | IC50 [2] [nM] | IC50 [3] [nM] | IC50 ([1]; Homo sapiens) [nM]
1 | Cc1ccc(S(=O)(=O)NC23CC(N4CCOCC4)(C2)C3)cc1-c1cnc2c(N)ncnn12 [Example 116, 3-(4-Aminoimidazo[1,2-f][1,2,4]triazin-7-yl)-4-methyl-N-(3-morpholinobicyclo[1.1.1]pentan-1-yl)benzenesulfonamide trifluoroacetate salt] | 100 to 500 | < 100 | 500 to 2000 | 
2 | Cc1ccc(S(=O)(=O)N[C@H]2CC[C@H](O)CC2)cc1-c1cnc2c(N)nc(-c3ccnn3C)cn12 [Example 28, 3-[8-Amino-6-(1-methyl-1H-pyrazol-5-yl)imidazo[1,2-a]pyrazin-3-yl]-N-(trans-4-hydroxycyclohexyl)-4-methylbenzenesulfonamide] |  | < 100 | 100 to 500 | 100 to 500
3 | Cc1ccc(S(=O)(=O)N2CC(O)(C3CC3)C2)cc1-c1cnc2c(N)nc(C(F)(F)F)nn12 [Example 342, 1-((3-(4-amino-2-(trifluoromethyl)imidazo[2,1-1,2,4]triazin-7-yl)-4-methylphenyl)sulfonyl)-3-cyclopropylazetidin-3-ol TFA] | 100 to 500 | < 100 | 100 to 500 | 
4 | N#CC12CCC(NS(=O)(=O)c3cc(-c4cnc5c(N)nc(C(F)(F)F)cn45)ccc3Cl)(C1)C2 [Example 392, 5-(8-Amino-6-(trifluoromethyl)imidazo[1,2-a]pyrazin-3-yl)-2-chloro-N-(4-cyanobicyclo[2.1.1]hexan-1-yl)benzenesulfonamide trifluoroacetate salt] |  | < 100 | < 100 | 100 to 500
5 | Cc1ccc(S(=O)(=O)NC2CC2)cc1-c1cnc2c(N)nccn12 [Example 47, 3-(8-Aminoimidazo[1,2-a]pyrazin-3-yl)-N-cyclopropyl-4-methylbenzenesulfoanmide] | > 1000 | < 100 | 500 to 2000 | 
6 | Cc1ccc(S(=O)(=O)N[C@H]2CC[C@H](O)CC2)cc1-c1cnc2c(N)nc(-c3cnn(CC(F)(F)F)c3)cn12 [Example 76, 3-{8-amino-6-[1-(2,2,2-trifluoroethyl)-1H-pyrazol-4-yl]imidazo[1,2-a]pyrazin-3-yl}-N-(trans-4-hydroxycyclohexyl)-4-methylbenzenesulfonamide] |  | < 100 | 100 to 500 | 100 to 500
7 | Cc1ccc(S(=O)(=O)NC23CC(N4CCOCC4)(C2)C3)cc1-c1cnc2c(N)nc(C(F)(F)F)nn12 [Example 340, 3-(4-Amino-2-(trifluoromethyl)imidazo[1,2-f][1,2,4]triazin-7-yl)-4-methyl-N-(3-morpholinobicyclo[1.1.1]pentan-1-yl)benzenesulfonamide trifluoroacetate salt] | 100 to 500 | < 100 | 100 to 500 | 
8 | Cc1ccc(S(=O)(=O)NC23CCC(CC2)CC3)cc1-c1cnc2c(N)ncnn12 [Example 181, 3-(4-aminoimidazo[1,2-f][1,2,4]triazin-7-yl)-N-(bicyclo[2.2.2]octan-1-yl)-4-methylbenzenesulfonamide trifluoroacetate salt] | 100 to 500 | < 100 | < 100 | 
9 | Cc1ccc(S(=O)(=O)NC23CC(C(N)=O)(C2)C3)cc1-c1cnc2c(N)nc(C(F)(F)F)cn12 [Example 288, 3-(3-(8-Amino-6-(trifluoromethyl)imidazo[1,2-a]pyrazin-3-yl)-4-methylphenylsulfonamido)bicyclo[1.1.1]pentane-1-carboxamide trifluoroacetate salt] |  | < 100 | 100 to 500 | 100 to 500

Results, then the molecule that gave them:

Row | IC50 [1] [nM] | IC50 [2] [nM] | IC50 [3] [nM] | IC50 ([1]; Homo sapiens) [nM] | Structure (SMILES)
10 | < 100 | < 100 | 100 to 500 |  | Cc1ccc(S(=O)(=O)NCC(C)(C)O)cc1-c1cnc2c(N)nc(C(F)(F)F)nn12 [Example 317, 3-(4-Amino-2-(trifluoromethyl)imidazo[1,2-f][1,2,4]triazin-7-yl)-N-(2-hydroxy-2-methylpropyl)-4-methylbenzenesulfonamide trifluoroacetate salt]
11 |  | < 100 | 100 to 500 | 100 to 500 | COc1cn[nH]c1-c1cn2c(-c3cc(S(C)(=O)=O)ccc3C)cnc2c(N)n1 [Example 491, 6-(4-Methoxy-1H-pyrazol-5-yl)-3-(2-methyl-5-(methylsulfonyl)phenyl)imidazo[1,2-a]pyrazin-8-amine trifluoroacetate]
12 | > 1000 | < 100 | 500 to 2000 |  | Cc1ccc(S(=O)(=O)NCC2(C#N)CC2)cc1-c1cnc2c(N)ncnn12 [Example 101, 3-(4-Aminoimidazo[1,2-f][1,2,4]triazin-7-yl)-N-((1-cyanocyclopropyl)methyl)-4-methylbenzenesulfonamide trifluoroacetate salt]
13 |  | < 100 | 100 to 500 | 100 to 500 | Cc1ccc(S(=O)(=O)N[C@H]2CC[C@@H](O)CC2)cc1-c1cnc2c(N)ncnn12 [Example 63, 3-(4-Aminoimidazo[2,1-f][1,2,4]triazin-7-yl)-N-(cis-4-hydroxycyclohexyl)-4-methylbenzenesulfonamide]
14 |  | < 100 | 100 to 500 | 100 to 500 | [2H]C([2H])([2H])c1ccc(S(=O)(=O)NC23COC(C)(C2)C3)cc1-c1cnc2c(N)nc(C)nn12 [Example 426, 3-(4-Amino-2-methylimidazo[1,2-f][1,2,4]triazin-7-yl)-4-trideuteromethyl-N-(1-methyl-2-oxabicyclo[2.1.1]hexan-4-yl)benzenesulfonamide trifluoroacetate salt]
15 |  | < 100 | 100 to 500 | 100 to 500 | Cc1ccc(S(=O)(=O)NC23CCC(CC#N)(CC2)C3)cc1-c1cnc2c(N)ncnn12 [Example 430, 3-(4-Aminoimidazo[1,2-f][1,2,4]triazin-7-yl)-N-((1s,4s)-4-(cyanomethyl)bicyclo[2.2.1]heptan-1-yl)-4-methylbenzenesulfonamide trifluoroacetate salt]
16 |  | < 100 | 100 to 500 | 100 to 500 | Cc1ccc(S(=O)(=O)NC23COC(CO)(C2)C3)cc1-c1cnc2c(N)nc(C(F)(F)F)nn12 [Example 427, 3-(4-Amino-2-(trifluoromethyl)imidazo[1,2-f][1,2,4]triazin-7-yl)-N-(1-(hydroxymethyl)-2-oxabicyclo[2.1.1]hexan-4-yl)-4-methylbenzenesulfonamide trifluoroacetate salt]
17 |  | < 100 | 100 to 500 | 100 to 500 | Cc1ccc(S(=O)(=O)N2CC3CCOCC3C2)cc1-c1cnc2c(N)ncnn12 (stereo not drawn) [Example 210, 7-(5-((Hexahydropyrano[3,4-c]pyrrol-2(3H)-yl)sulfonyl)-2-methylphenyl)imidazo[2,1-f][1,2,4]triazin-4-amine]
18 |  | < 100 | 500 to 2000 | > 1000 | Cc1ccc(S(=O)(=O)N[C@H]2CC[C@H](N)CC2)cc1-c1cnc2c(N)ncnn12 [Example 73, bis-hydrochloride]
19 | < 100 | < 100 | 100 to 500 |  | Cc1c(F)cc(S(=O)(=O)NC23CCC(C#N)(C2)C3)cc1-c1cnc2c(N)nc(C(F)(F)F)nn12 [Example 416, 3-(4-Amino-2-(trifluoromethyl)imidazo[1,2-f][1,2,4]triazin-7-yl)-N-(4-cyanobicyclo[2.1.1]hexan-1-yl)-5-fluoro-4-methylbenzenesulfonamide trifluoroacetate salt]
20 |  | < 100 | 100 to 500 | 100 to 500 | Cc1ccc(S(=O)(=O)NC23CC(Cn4cccn4)(C2)C3)cc1-c1cnc2c(N)nc(C(F)(F)F)cn12 [Example 283, N-(3-((1H-pyrazol-1-yl)methyl)bicyclo[1.1.1]pentan-1-yl)-3-(8-amino-6-(trifluoromethyl)imidazo[1,2-a]pyrazin-3-yl)-4-methylbenzenesulfonamide trifluoroacetate salt]
21 |  | < 100 | 100 to 500 | 500 to 1000 | Cc1ccc(S(=O)(=O)N2CCC3(CCCOC3)C2)cc1-c1cnc2c(N)ncnn12 (stereo not drawn) [Example 203, 7-(5-((7-Oxa-2-azaspiro[4.5]decan-2-yl)sulfonyl)-2-methylphenyl)imidazo[2,1-f][1,2,4]triazin-4-amine]
22 |  | < 100 | 100 to 500 | 500 to 1000 | Cc1ccc(S(=O)(=O)N(CCC#N)C2CCCC2)cc1-c1cnc2c(N)ncnn12 [Example 165, 3-(4-aminoimidazo[2,1-f][1,2,4]triazin-7-yl)-N-(2-cyanoethyl)-N-cyclopentyl-4-methylbenzenesulfonamide]
